Values quoted from earlier work as cited in patent US10196337B2, “Processes for the preparation of hydroxylated cyclohexyl compounds” (priority 2016, dated 2019).

System: A2780 ovarian cancer cell line
Details: compounds isolated from bark extract of Pleiogynium timorense, literature ref. 1, read-out: IC50 against the A2780 ovarian cancer cell line

| IC50 | Compound |
| --- | --- |
| 700 nM | pleiogenone B [compound 2] |
| 800 nM | pleiogenone C [compound 3] |

| Compound | IC50 |
| --- | --- |
| CCCCCCCC/C=C\CCCCCCC[C@]1(O)C(=O)C=C[C@H](O)[C@H]1O [compound 1, pleiogenone A] | 800 nM |
